According to patent US20100311714A1, “1H-IMIDAZO[4,5-c]QUINOLINONE COMPOUNDS” (priority 2009, published 2010):
Where two headings read alike, the source gives them in different places.

Columns and labels:
[1] = molecular target: T1, mTOR (Homo sapiens, UniProt P42345); assay: Biochemical assay for m-TOR by TR-FRET
T1 construct: purchased Invitrogen Corporation (Carlsbad/Calif., USA) PV4753
In short: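 mTOR (0.5 nM) phosphorylates GFP-4EBP1 (400 nM) with 8 μM ATP at rt in 50 mM HEPES pH 7.5, 10 mM MnCl2, 50 mM NaCl, 1 mM EGTA, 1 mM DTT; compounds 0.003–10 μM final. EDTA stop with Tb-anti-p4EBP1[pT46] antibody (0.5 nM); TR-FRET read after 15 min against no-enzyme and vehicle controls.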

[2] = molecular target: T2, PI3K delta (Homo sapiens, UniProt O00329); assay: PI3K delta kinase assay (Kinase-Glo luminescence); format: biochemical
T2 construct: for the full-length p110-d subunit are generated and fused by overlapping PCR; His tag (C); made in house; host or cells: baculovirus BV1060; Tn5 (Trichoplusia ni) or TiniPro insect cells
T2 sequence (O00329 with tags, fused parts or gaps limits assumed): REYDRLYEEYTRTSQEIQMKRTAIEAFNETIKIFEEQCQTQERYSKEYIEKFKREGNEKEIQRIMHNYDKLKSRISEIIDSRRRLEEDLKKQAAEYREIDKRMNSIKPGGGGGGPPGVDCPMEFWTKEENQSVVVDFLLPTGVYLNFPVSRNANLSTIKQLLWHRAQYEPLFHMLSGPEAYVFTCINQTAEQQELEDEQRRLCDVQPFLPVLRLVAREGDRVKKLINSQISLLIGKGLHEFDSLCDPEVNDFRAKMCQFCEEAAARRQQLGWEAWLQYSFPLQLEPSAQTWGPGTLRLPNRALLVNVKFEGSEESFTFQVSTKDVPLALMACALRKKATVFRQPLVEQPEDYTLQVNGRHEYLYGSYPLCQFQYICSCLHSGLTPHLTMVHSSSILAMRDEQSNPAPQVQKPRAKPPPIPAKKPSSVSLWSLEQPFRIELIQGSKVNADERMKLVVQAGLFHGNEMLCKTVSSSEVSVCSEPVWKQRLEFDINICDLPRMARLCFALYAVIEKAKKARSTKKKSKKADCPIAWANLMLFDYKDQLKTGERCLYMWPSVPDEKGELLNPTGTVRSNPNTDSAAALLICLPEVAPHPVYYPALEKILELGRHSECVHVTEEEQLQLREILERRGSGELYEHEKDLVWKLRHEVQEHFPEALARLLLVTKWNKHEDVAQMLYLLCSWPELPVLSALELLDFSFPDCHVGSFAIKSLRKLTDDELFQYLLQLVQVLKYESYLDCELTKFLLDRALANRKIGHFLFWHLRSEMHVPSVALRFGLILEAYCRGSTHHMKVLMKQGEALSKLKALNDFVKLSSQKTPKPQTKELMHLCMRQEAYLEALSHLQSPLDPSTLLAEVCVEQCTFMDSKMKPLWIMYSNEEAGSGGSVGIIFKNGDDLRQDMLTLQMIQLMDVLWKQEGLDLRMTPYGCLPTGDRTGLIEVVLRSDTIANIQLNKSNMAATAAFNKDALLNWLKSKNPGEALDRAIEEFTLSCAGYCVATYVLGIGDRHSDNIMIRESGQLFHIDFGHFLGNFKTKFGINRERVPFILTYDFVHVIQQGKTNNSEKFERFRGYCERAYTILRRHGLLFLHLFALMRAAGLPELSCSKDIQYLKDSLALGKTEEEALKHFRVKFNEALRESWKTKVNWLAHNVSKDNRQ
In short: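 Kinase-Glo ATP-depletion luminescence using 10 nM p85(iSH2)-linker-p110δ full-length His-tag construct from insect cells, with 1 μM ATP and 10 μg/mL phosphatidylinositol in 10 mM Tris pH 7.5, 3 mM MgCl2, 50 mM NaCl, 0.05% CHAPS, 1 mM DTT. 60 min room temperature; IC50 from 4-parameter logistic fit over 8 concentrations.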

T1 sequence (P42345 1360-2549 limits assumed): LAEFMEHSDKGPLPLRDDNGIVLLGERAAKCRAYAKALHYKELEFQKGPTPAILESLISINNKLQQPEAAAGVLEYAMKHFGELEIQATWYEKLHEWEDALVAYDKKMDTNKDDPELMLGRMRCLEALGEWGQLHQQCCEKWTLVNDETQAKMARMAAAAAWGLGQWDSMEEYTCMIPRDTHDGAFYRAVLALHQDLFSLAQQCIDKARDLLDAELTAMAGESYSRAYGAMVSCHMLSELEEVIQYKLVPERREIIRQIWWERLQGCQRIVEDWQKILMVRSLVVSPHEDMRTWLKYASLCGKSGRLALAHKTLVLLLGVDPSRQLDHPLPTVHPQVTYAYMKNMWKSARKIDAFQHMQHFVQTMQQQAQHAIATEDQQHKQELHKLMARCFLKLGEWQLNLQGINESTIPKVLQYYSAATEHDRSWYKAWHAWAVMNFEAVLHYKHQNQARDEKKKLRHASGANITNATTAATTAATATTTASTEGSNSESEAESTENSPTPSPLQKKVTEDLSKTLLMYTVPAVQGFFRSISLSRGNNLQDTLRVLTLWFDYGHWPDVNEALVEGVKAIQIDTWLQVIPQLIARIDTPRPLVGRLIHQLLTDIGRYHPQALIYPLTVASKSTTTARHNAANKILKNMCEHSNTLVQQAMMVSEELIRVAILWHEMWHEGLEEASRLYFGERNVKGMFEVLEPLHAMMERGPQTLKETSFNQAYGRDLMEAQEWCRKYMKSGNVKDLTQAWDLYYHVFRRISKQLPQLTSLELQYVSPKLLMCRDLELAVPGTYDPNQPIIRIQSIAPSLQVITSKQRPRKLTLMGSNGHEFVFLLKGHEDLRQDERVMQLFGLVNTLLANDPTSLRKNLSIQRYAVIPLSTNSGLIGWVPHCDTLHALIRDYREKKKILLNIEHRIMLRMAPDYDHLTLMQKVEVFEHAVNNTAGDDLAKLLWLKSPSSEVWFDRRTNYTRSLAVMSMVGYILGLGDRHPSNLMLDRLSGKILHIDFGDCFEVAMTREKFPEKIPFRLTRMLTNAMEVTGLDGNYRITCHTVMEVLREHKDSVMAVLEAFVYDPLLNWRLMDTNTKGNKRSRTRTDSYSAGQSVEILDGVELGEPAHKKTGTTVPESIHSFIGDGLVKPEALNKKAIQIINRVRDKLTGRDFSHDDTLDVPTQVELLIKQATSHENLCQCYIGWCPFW

Row | IC50 ([1]; read-out: EPK_mTOR/IC50) | IC50 ([2]; read-out: EPK_PI3Kdelta/IC50) | IC50 ([1]; read-out: mTOR/IC50) | IC50 ([2]; read-out: PI3Kdelta/IC50) | Compound
1 | 0.076 µM | 0.043 µM |  |  | CCOc1cc(-c2ccc3ncc4c(c3c2)n(-c2ccc(N3CCCC3)nc2C)c(=O)n4C)cnc1COC [Example 25.2, 8-(5-Ethoxy-6-methoxymethyl-pyridin-3-yl)-3-methyl-1-(2-methyl-6-pyrrolidin-1-yl-pyridin-3-yl)-1,3-dihydro-imidazo[4,5-c]quinolin-2-one]
2 |  |  | 0.008 µM | 0.021 µM | CNc1ccc(-c2ccc3ncc4c(c3c2)n(-c2ccc(F)nc2C)c(=O)n4C)cn1 [Example 7.4, 1-(6-Fluoro-2-methyl-pyridin-3-yl)-3-methyl-8-(6-methylamino-pyridin-3-yl)-1,3-dihydro-imidazo[4,5-c]quinolin-2-one]
3 | 0.137 µM | 0.046 µM |  |  | COCc1ncc(-c2ccc3ncc4c(c3c2)n(-c2ccc(N3CCC3)nc2C)c(=O)n4C)cc1OC [Example 23.6, 1-(6-Azetidin-1-yl-2-methyl-pyridin-3-yl)-8-(5-methoxy-6-methoxymethyl-pyridin-3-yl)-3-methyl-1,3-dihydro-imidazo[4,5-c]quinolin-2-one]
4 | 0.003 µM | 0.088 µM |  |  | CNc1ncc(-c2ccc3ncc4c(c3c2)n(-c2ccc(N(C)CCO)nc2C)c(=O)n4C)cn1 [Example 26.2, 1-{6-[(2-Hydroxy-ethyl)-methyl-amino]-2-methyl-pyridin-3-yl}-3-methyl-8-(2-methylamino-pyrimidin-5-yl)-1,3-dihydro-imidazo[4,5-c]quinolin-2-one]
5 |  |  | 0.017 µM | 0.031 µM | Cc1nc(F)ccc1-n1c(=O)n(C)c2cnc3ccc(-c4cnc5c(ccn5C)c4)cc3c21 [Example 7.2, 1-(6-Fluoro-2-methyl-pyridin-3-yl)-3-methyl-8-(1-methyl-1H-pyrrolo[2,3-b]pyridin-5-yl)-1,3-dihydro-imidazo[4,5-c]quinolin-2-one]
6 | 0.021 µM | 0.003 µM |  |  | CNc1ncc(-c2ccc3ncc4c(c3c2)n(-c2ccc(C(C)(C)O)nc2C)c(=O)n4C)cc1F [Example 31.1, 8-(5-Fluoro-6-methylamino-pyridin-3-yl)-1-[6-(1-hydroxy-1-methyl-ethyl)-2-methyl-pyridin-3-yl]-3-methyl-1,3-dihydro-imidazo[4,5-c]quinolin-2-one]
7 | 0.006 µM | < 0.003 µM |  |  | Cc1nc(C(C)(C)O)ccc1-n1c(=O)n(C)c2cnc3ccc(-c4cnc(N)c(C(F)(F)F)c4)cc3c21 [Example 31.5, 8-(6-Amino-5-trifluoromethyl-pyridin-3-yl)-1-[6-(1-hydroxy-1-methyl-ethyl)-2-methyl-pyridin-3-yl]-3-methyl-1,3-dihydro-imidazo[4,5-c]quinolin-2-one]
8 | 0.005 µM | 0.019 µM |  |  | CCNc1cc(-c2ccc3ncc4c(c3c2)n(-c2ccc(N3CC(O)C3)nc2C)c(=O)n4C)cnc1CO [Example 29.2, 8-(5-Ethylamino-6-hydroxymethyl-pyridin-3-yl)-1-[6-(3-hydroxy-azetidin-1-yl)-2-methyl-pyridin-3-yl]-3-methyl-1,3-dihydro-imidazo[4,5-c]quinolin-2-one]
9 | 0.075 µM | 0.036 µM |  |  | CCOc1ccc(-c2ccc3ncc4c(c3c2)n(-c2ccc(C(C)(C)O)nc2C)c(=O)n4C)cn1 [Example 31.4, 8-(6-Ethoxy-pyridin-3-yl)-1-[6-(1-hydroxy-1-methyl-ethyl)-2-methyl-pyridin-3-yl]-3-methyl-1,3-dihydro-imidazo[4,5-c]quinolin-2-one]
10 | 0.006 µM | 0.048 µM |  |  | CNc1ccc(-c2ccc3ncc4c(c3c2)n(-c2ccc(N3CCC3)nc2C)c(=O)n4C)cn1 [Example 23.4, 1-(6-Azetidin-1-yl-2-methyl-pyridin-3-yl)-3-methyl-8-(6-methylamino-pyridin-3-yl)-1,3-dihydro-imidazo[4,5-c]quinolin-2-one]
11 | 0.122 µM | 0.007 µM |  |  | Cc1nc(C(C)(C)O)ccc1-n1c(=O)n(C)c2cnc3ccc(-c4cncc(C5(C#N)CCC5)c4)cc3c21 [Example 31.8, 1-(5-{1-[6-(1-Hydroxy-1-methyl-ethyl)-2-methyl-pyridin-3-yl]-3-methyl-2-oxo-2,3-dihydro-1H-imidazo[4,5-c]quinolin-8-yl}-pyridin-3-yl)-cyclobutanecarbonitrile]
12 | 0.007 µM | 0.016 µM |  |  | Cc1nc(N2CCC2)ccc1-n1c(=O)n(C)c2cnc3ccc(-c4cncc(C(C)(C)O)c4)cc3c21 [Example 23.3, 1-(6-Azetidin-1-yl-2-methyl-pyridin-3-yl)-8-[5-(1-hydroxy-1-methyl-ethyl)-pyridin-3-yl]-3-methyl-1,3-dihydro-imidazo[4,5-c]quinolin-2-one]
13 | 0.021 µM | 0.164 µM |  |  | CNc1ncc(-c2ccc3ncc4c(c3c2)n(-c2ccc(N3CC(F)(F)C3)nc2C)c(=O)n4C)cn1 [Example 24.1, 1-[6-(3,3-Difluoro-azetidin-1-yl)-2-methyl-pyridin-3-yl]-3-methyl-8-(2-methylamino-pyrimidin-5-yl)-1,3-dihydro-imidazo[4,5-c]quinolin-2-one]
14 | < 0.003 µM | 0.005 µM |  |  | Cc1nc(N2CCN(C)C(=O)C2)ccc1-n1c(=O)n(C)c2cnc3ccc(-c4cnc(N)c(C(F)(F)F)c4)cc3c21 [Example 21.1, 8-(6-Amino-5-trifluoromethyl-pyridin-3-yl)-3-methyl-1-[2-methyl-6-(4-methyl-3-oxo-piperazin-1-yl)-pyridin-3-yl]-1,3-dihydro-imidazo[4,5-c]quinolin-2-one]
15 | 0.061 µM | 0.05 µM |  |  | COc1cc(-c2ccc3ncc4c(c3c2)n(-c2ccc(N3CC(O)C3)nc2C)c(=O)n4C)cnc1CO [Example 29.5, 1-[6-(3-Hydroxy-azetidin-1-yl)-2-methyl-pyridin-3-yl]-8-(6-hydroxymethyl-5-methoxy-pyridin-3-yl)-3-methyl-1,3-dihydro-imidazo[4,5-c]quinolin-2-one]

More lines, now with the values behind:

Row | Compound | IC50 ([1]; read-out: EPK_mTOR/IC50) | IC50 ([2]; read-out: EPK_PI3Kdelta/IC50) | IC50 ([1]; read-out: mTOR/IC50) | IC50 ([2]; read-out: PI3Kdelta/IC50)
16 | Cc1ncccc1-n1c(=O)n(C)c2cnc3ccc(-c4cncc(N)c4)cc3c21 [Example 2.25, 8-(5-Amino-pyridin-3-yl)-3-methyl-1-(2-methyl-pyridin-3-yl)-1,3-dihydro-imidazo[4,5-c]quinolin-2-one] | 0.012 µM | 0.057 µM |  | 
17 | Cc1ncccc1-n1c(=O)n(C)c2cnc3ccc(-c4ccc(C(N)=O)cc4)cc3c21 [Example 2.3, 4-[3-Methyl-1-(2-methyl-pyridin-3-yl)-2-oxo-2,3-dihydro-1H-imidazo[4,5-c]quinolin-8-yl]-benzamide] |  |  | 0.011 µM | 0.093 µM
18 | Cc1cccnc1-n1c(=O)n(C)c2cnc3ccc(-c4cnc(N)c(C(F)(F)F)c4)cc3c21 [Example 3.12, 8-(6-Amino-5-trifluoromethyl-pyridin-3-yl)-3-methyl-1-(3-methyl-pyridin-2-yl)-1,3-dihydro-imidazo[4,5-c]quinolin-2-one] |  |  | 0.389 µM | 0.021 µM
19 | Cc1cccnc1-n1c(=O)n(C)c2cnc3ccc(-c4ccc(C(N)=O)cc4)cc3c21 [Example 3.3, 4-[3-Methyl-1-(3-methyl-pyridin-2-yl)-2-oxo-2,3-dihydro-1H-imidazo[4,5-c]quinolin-8-yl]-benzamide] |  |  | 0.345 µM | 0.834 µM
20 | Cc1ncccc1-n1c(=O)n(C)c2cnc3ccc(-c4cncc(N5CCC5)c4)cc3c21 [Example 2.29, 8-(5-Azetidin-1-yl-pyridin-3-yl)-3-methyl-1-(2-methyl-pyridin-3-yl)-1,3-dihydro-imidazo[4,5-c]quinolin-2-one] | 0.043 µM | 0.504 µM |  | 
21 | Cc1ncccc1-n1c(=O)n(C)c2cnc3ccc(-c4cncc(NC(C)C)c4)cc3c21 [Example 2.24, 8-(5-Isopropylamino-pyridin-3-yl)-3-methyl-1-(2-methyl-pyridin-3-yl)-1,3-dihydro-imidazo[4,5-c]quinolin-2-one] | 0.029 µM | 0.031 µM |  | 
22 | CNc1ncc(-c2ccc3ncc4c(c3c2)n(-c2ncccc2C)c(=O)n4C)cn1 [Example 3.4, 3-Methyl-8-(2-methylamino-pyrimidin-5-yl)-1-(3-methyl-pyridin-2-yl)-1,3-dihydro-imidazo[4,5-c]quinolin-2-one] |  |  | 0.607 µM | 0.236 µM
23 | Cc1ncccc1-n1c(=O)n(C)c2cnc3ccc(-c4cnc(N)c(C(F)(F)F)c4)cc3c21 [Example 2.11, 8-(6-Amino-5-trifluoromethyl-pyridin-3-yl)-3-methyl-1-(2-methyl-pyridin-3-yl)-1,3-dihydro-imidazo[4,5-c]quinolin-2-one] |  |  | 0.016 µM | 0.012 µM
24 | Cc1ncccc1-n1c(=O)n(C)c2cnc3ccc(-c4ccc(OCCCN(C)C)nc4)cc3c21 [Example 2.10, 8-[6-(3-Dimethylamino-propoxy)-pyridin-3-yl]-3-methyl-1-(2-methyl-pyridin-3-yl)-1,3-dihydro-imidazo[4,5-c]quinolin-2-one] |  |  | 0.6 µM | 0.855 µM
25 | CCOc1cc(-c2ccc3ncc4c(c3c2)n(-c2cccnc2C)c(=O)n4C)cnc1COC [Example 2.28, 8-(5-Ethoxy-6-methoxymethyl-pyridin-3-yl)-3-methyl-1-(2-methyl-pyridin-3-yl)-1,3-dihydro-imidazo[4,5-c]quinolin-2-one] | 0.058 µM | 0.054 µM |  | 
26 | COc1ncccc1-n1c(=O)n(C)c2cnc3ccc(-c4ccc(C(N)=O)cc4)cc3c21 [Example 1.6, 4-[1-(2-Methoxy-pyridin-3-yl)-3-methyl-2-oxo-2,3-dihydro-1H-imidazo[4,5-c]quinolin-8-yl]-benzamide] |  |  | 0.01 µM | 0.163 µM
